# Experimental data as given in patent US9125930B2, “EGFR aptamer inhibitor for use in therapy and diagnosis” (CONSIGLIO NAZIONALE DELLE RICERCHE, priority 2010, dated 2015).
# Columns and labels:
# [1] = system: A549 cells transfected with a specific EGFR shRNA; experiment: Binding on A549 cells after EGFR gene silencing; design: species or system human; conditions: [32P]-labeled aptamer at 100 nM, relative to scrambled aptamer
# Experimental: EGFR gene silencing in NSCLC A549 cells was established by transfection of high performance short hairpin RNA (shRNA) specifically targeting EGFR (from Expression Arrest™ Human shRNA Collection, Open Biosystems, Huntsville, Ala.). Cells (3.5×10^5 cells per 6 cm plate) were grown and overlaid with the transfection mixtures containing the shRNA (6 μg) against EGFR (referred as shRNAEGFR) and Lipofectamine 2000 (Invitrogen, Carlsbad, Calif.) in Opti-MEM I reduced serum medium (Invitrogen). After 5 hours incubation, complete culture medium was added to the cells and incubation was prolonged up to 72 hs. […] For binding assays transfected cells were plated in 24 well plates after 24 hs from transfection.
# Binding experiments were performed with 5′-[^32P]-labeled RNA. […]
# (§1) For binding experiments on cells, 3.5×10^4 cells were plated in 24-well plates in triplicate and were incubated with CL4 42-81 aptamer the scrambled sequence used as a negative control at 100 nM concentration in 200 μl of DMEM serum free for 20 min at RT in the presence of 100 μg/ml polyinosine as a nonspecific competitor (Sigma, St. Louis, Mo.). After five washings with 500 μl DMEM, bound sequences were recovered in 300 μl of SDS 1%, and the amount of radioactivity recovered was counted.
# glioma T98G = experiment: Binding on T98G cells; design: species or system human; conditions: high level of EGFR; 100 nM
# Experimental: (§2) Binding experiments were performed with 5′-[^32P]-labeled RNA. For labeling 2′-F-Py RNAs were 5′-end dephosphorylated using bacterial alcaline phosphatase (Invitrogen, Carlsbad, Calif.) before [^32P]-5′-end-labeled using T4 kinase (Invitrogen) and γ-[^32P]-ATP (6×10^3 Ci/mmol, GE Healthcare Bio-Sciences, Uppsala, Sweden) according to the supplier's instructions.
# as §1
# breast SKBR3 = experiment: Binding on SKBR3 cells; design: species or system human; conditions: high level of EGFR; 100 nM
# Experimental: as §2, §1
# STAT 3 = experiment: Immunoblot of EGF-induced STAT3 phosphorylation; assay type: cell-based, human; conditions: data not shown
# Experimental: To assess the effects of aptamers on EGFR activity, A549 cells (1.5×10^5 cells per 3.5-cm plate) were serum-starved over night, pretreated with 200 nM CL4 42-81 aptamer or the scrambled aptamer used as a negative control for 3 h and then stimulated for 30 min with 50 ng/ml EGF (R&D Systems, Minneapolis, Minn.) either alone or in presence of each aptamer. The aptamers were subjected to a short denaturation-renaturation step (85° C. for 5 min, snap-cooled on ice for 2 min, and allowed to warm up to 37° C.) before each treatment. To prepare cell extracts, cells were washed twice in ice-cold PBS, and lysed in buffer A (50 mM Tris-HCl pH 8.0 buffer containing 150 mM NaCl, 1% Nonidet P-40, 2 mg/ml aprotinin, 1 mg/ml pepstatin, 2 mg/ml leupeptin, 1 mM Na3VO4). Protein concentration was determined by the Bradford assay using bovine serum albumin as the standard. The cell lysates were subjected to SDS-PAGE. […]
# A431 cells = experiment: Cell viability assay, A431 cells; assay type: cell-based, human
# Experimental: Cell viability was assessed with CellTiter 96® AQueous One Solution Cell Proliferation Assay (Promega, Madison, Wis.) according to according to the supplier's instructions. Cells (4×10^3 cells/well) were plated in 96-well plates in triplicate. and were treated for 24 hs with heat denatured CL4 42-81 or the scrambled aptamer at 3 μM concentration. RNA concentrations were determined to ensure the continuous presence of a concentration of at least 200 nM, which takes into account the 6 hs-half life of the aptamer in 10% serum. The optical density (OD) was measured using a Multilabel Counter (Bio-Rad) at a wavelength of 490 nm and cell viability was calculated by the following formula: Cell viability (%)=(OD treated cells/OD control cells)×100%. FACS Analysis
# A549 cells = experiment: Apoptosis assay by PI staining and FACS; assay type: cell-based, human; design: dose or concentration left out as unconfirmed
# Experimental: For apoptosis assay, DNA content analysis was performed by staining with propidium iodide (PI) and analyzing cells by flow cytometry (FACS).
# […] Cells were incubated with 2 μg/ml propidium iodide (PI, Sigma, St. Louis, Mo.) for 30 min at 4° C. and recovered. The relative proportion of cells with DNA content indicative of apoptosis (ipoploid) was determined by FACS.
# caspase-3 = experiment: Caspase-3 activity assay in A549 cells; assay type: cell-based, human; conditions: A549, 200 nM, 6 hs
# Experimental: A549 cells were treated with 200 nM CL4 42-81 or the scrambled aptamer for 6 hs. To determine caspase activity cell lysates (50 μg) were incubated at 37° C. for 1 h with 50 μM of a specific fluorometric substrate (Ac-DEVD-AFC for caspase-3, Ac-IETD-AFC for caspase-8, both from Alexis Bichemicals, San Diego, Calif.). Cleavage of the fluorometric substrate were determined using a Fluorometer, with excitation at 400 nm and emission at 505 nm wavelengths.
substance,measurement,setting,value
"CL4 42-81: 2′-fluoropyrimidine nuclease-resistant RNA aptamer of 39 nt: 5′ GCCUUAGUAACGUGCUUUGAUGUCGAUUCGACAGGAGGC 3′ (SEQ ID No. 1) (2'-fluoro at CU, RNA at AG, backbone not given here)",ability to bind to A549 cells upon decreased EGFR expression,[1],significantly reduced
same,binding on T98G cells,glioma T98G,binds
same,binding on SKBR3 cells,breast SKBR3,binds
same,EGF-induced phosphorylation of STAT 3,STAT 3,decreases
same,sensitivity of A431 cell viability,"A431 cells; 200 nM-final concentration, not shown",same effect
same,cell viability,"A431 cells; A431, 24 hs, 200 nM final concentration, relative to untreated cells set to 100%",about 60%
same,percentage of apoptotic cells (sub-G1 peak),"A549 cells; A549, 24 hs",about 30%
same,percentage of apoptotic cells (sub-G1 peak),"A549 cells; A549, 48 hs",40%
same,activation of caspase-3,caspase-3,strongly induce activation
